In assay [1] the target is T1, Human CD73 (amino acid residues 27-549) (Homo sapiens, UniProt P21589).
T1 construct: Human CD73 (amino acid residues 27-549); His tag (N); made in house; host or cells: E. coli
T1 sequence (P21589 27-549): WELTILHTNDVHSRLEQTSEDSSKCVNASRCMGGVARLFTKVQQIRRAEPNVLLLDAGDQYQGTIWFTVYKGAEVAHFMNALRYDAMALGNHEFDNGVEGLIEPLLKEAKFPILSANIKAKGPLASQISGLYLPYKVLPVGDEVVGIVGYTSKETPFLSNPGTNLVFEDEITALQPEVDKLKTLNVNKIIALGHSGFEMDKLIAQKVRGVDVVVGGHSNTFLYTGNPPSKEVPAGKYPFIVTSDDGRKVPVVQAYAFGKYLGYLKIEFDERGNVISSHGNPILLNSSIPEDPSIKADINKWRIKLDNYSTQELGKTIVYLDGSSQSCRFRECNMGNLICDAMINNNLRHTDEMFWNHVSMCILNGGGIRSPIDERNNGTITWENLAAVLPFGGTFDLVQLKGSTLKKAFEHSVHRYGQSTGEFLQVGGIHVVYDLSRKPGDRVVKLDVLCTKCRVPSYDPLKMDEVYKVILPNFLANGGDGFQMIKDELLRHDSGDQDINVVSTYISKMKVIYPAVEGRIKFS
The assay can be described thus: CD73 enzymatic assay (luciferase-based indirect assay, CellTiter-Glo). Format: biochemical. The settings on record: 0.4 nM CD73, 150 μM AMP, 1 hour at room temperature. An outline of the steps:
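Residual AMP inhibits luciferase, so luminescence reports CD73 turnover; read with CellTiter-Glo 2.0 plus 1 μM final ATP, 30 min. Reaction used 0.4 nM N-His CD73 (27-549, E. coli), 150 μM AMP, HEPES pH 7.4 with Tween 20, 1 h at room temperature. IC50 fitted by nonlinear regression.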
(In general: ATP-based viability assays read luminescence as a measure of living cells.)

Assay [2] concerns the target T2, human CD73 (Homo sapiens, UniProt P21589).
T2 construct: expressed in transfected cells
T2 sequence (P21589 27-549): T1 sequence (P21589 27-549)
The assay is described as follows: Inhibitor activity against CD73 in cell based assay (CD73 expressing CHO-K1 cells). The settings on record: CHO-K1 cells expressing human CD73, 150 μM AMP, 4 hours of incubation; read-out: CHO-K1 CELL VARIANT: CD73 IC50. The protocol:
Determine Inhibitor Activity Against CD73 in Cell Based Assay
CD73 expressing CHO-K1 cell clones were generated upon stable transfection of a plasmid expressing human CD73 under the control of CMV promoter. Cells were selected in Ham's F-12K (Kaighn's) media supplemented with 10% fetal bovine serum and 1 mg/ml G418 at 37° C. in a humidified incubator supplied with 5% CO2. The assays were performed as follows. Cells were seeded in a 96 well plate in 50 μL of culture media at a density of 1×10^4 per well. Compound at a maximal concentration of 5 mM was serially diluted 1:3 in DMSO for a total of 8 point titration. A 2 μL aliquot of each dilution point was added to 248 μL culture media and 25 µL was added to each well, providing 10 μM compound at the maximum concentration point. AMP was diluted in culture media and 25 μL was added to each well with a final concentration of 150 μM. 4 wells containing 0.2% DMSO treated cells and AMP served as high controls and 4 wells containing media only with 0.2% DMSO and AMP served as low controls. After 4 hours of incubation, 20 μL of the supernatant was transferred to a 384 well plate. AMP level in supernatant was measured indirectly by adding 5 μL of CellTiter-Glo® 2.0 reagent and 5 μL of ATP with a final concentration of 1 μM. Following incubation of plate at room temperature for 30 minutes, luminescent signal was read on a Tecan plate reader. The percentage inhibition at individual concentrations relative to high and low controls was calculated. The data were analyzed by using nonlinear regression to generate IC50 values.

Broadly, the IC50 is the concentration at which inhibition is half-maximal. Take `O=C(N[C@@H]1CCOC1)O[C@@H]1CCN(c2cn[nH]c(=O)c2Cl)C1` [P-0108, (R)-1-(5-chloro-6-oxo-1,6-dihydropyridazin-4-yl)pyrrolidin-3-yl ((R)-tetrahydrofuran-3-yl)carbamate]: the IC50 in assay [1] and in assay [2] was 0.001 to 10 µM in each case.

As to `C[C@H]1CC[C@H](NC(=O)O[C@@H]2CCN(c3cn[nH]c(=O)c3Cl)C2)CC1` [P-0109, (R)-1-(5-chloro-6-oxo-1,6-dihydropyridazin-4-yl)pyrrolidin-3-yl ((1r,4R)-4-methylcyclohexyl)carbamate], the IC50 in assay [1] and in assay [2] was 0.001 to 10 µM each time.

In the case of `C[C@H]1CC[C@@H](NC(=O)O[C@@H]2CCN(c3cn[nH]c(=O)c3Cl)C2)CC1` [P-0110, (R)-1-(5-chloro-6-oxo-1,6-dihydropyridazin-4-yl)pyrrolidin-3-yl ((1s,4S)-4-methylcyclohexyl)carbamate], the IC50 in assay [1] and in assay [2] was 0.001 to 10 µM in each case.

With `O=C(NC1C2CC3CC(C2)CC1C3)O[C@@H]1CCN(c2cn[nH]c(=O)c2Cl)C1` (stereo partly drawn) [P-0111, (R)-1-(5-chloro-6-oxo-1,6-dihydropyridazin-4-yl)pyrrolidin-3-yl adamantan-2-ylcarbamate], the IC50 in assay [1] and in assay [2] was 0.001 to 10 µM each time.

Turning to `O=C(NC1CCC(F)(F)C1)O[C@@H]1CCN(c2cn[nH]c(=O)c2Cl)C1` (stereo partly drawn) [P-0112, (R)-1-(5-chloro-6-oxo-1,6-dihydropyridazin-4-yl)pyrrolidin-3-yl (3,3-difluorocyclopentyl)carbamate], the IC50 in assay [1] and in assay [2] was 0.001 to 10 µM each time.

Turning to `CC1(NC(=O)O[C@@H]2CCN(c3cn[nH]c(=O)c3Cl)C2)CCOC1` (stereo partly drawn) [P-0113, (R)-1-(5-chloro-6-oxo-1,6-dihydropyridazin-4-yl)pyrrolidin-3-yl (3-methyltetrahydrofuran-3-yl)carbamate], the IC50 in assay [1] and in assay [2] was 0.001 to 10 µM each time.

In the case of `N#CC1CCC(NC(=O)O[C@@H]2CCN(c3cn[nH]c(=O)c3Cl)C2)CC1` (stereo partly drawn) [P-0114, (R)-1-(5-chloro-6-oxo-1,6-dihydropyridazin-4-yl)pyrrolidin-3-yl (4-cyanocyclohexyl)carbamate], the IC50 in assay [1] and in assay [2] was 0.001 to 10 µM throughout.

Consider `O=C(NC1CC2(CCC2)C1)O[C@@H]1CCN(c2cn[nH]c(=O)c2Cl)C1` [P-0115, (R)-1-(5-chloro-6-oxo-1,6-dihydropyridazin-4-yl)pyrrolidin-3-yl spiro[3.3]heptan-2-ylcarbamate], for which the IC50 in assay [1] and in assay [2] was 0.001 to 10 µM throughout.

In the case of `CS(=O)(=O)NC1CCC(NC(=O)O[C@@H]2CCN(c3cn[nH]c(=O)c3Cl)C2)CC1` (stereo partly drawn) [P-0116, (R)-1-(5-chloro-6-oxo-1,6-dihydropyridazin-4-yl)pyrrolidin-3-yl (4-(methylsulfonamido)cyclohexyl)carbamate], the IC50 in assay [1] and in assay [2] was 0.001 to 10 µM throughout.

In the case of `O=C(NC1CC2CCC1O2)O[C@@H]1CCN(c2cn[nH]c(=O)c2Cl)C1` (stereo partly drawn) [P-0117, (R)-1-(5-chloro-6-oxo-1,6-dihydropyridazin-4-yl)pyrrolidin-3-yl (7-oxabicyclo[2.2.1]heptan-2-yl)carbamate], the IC50 in assay [1] and in assay [2] was 0.001 to 10 µM in each case.

In the case of `O=C(NC1(C2CC2)CC1)O[C@@H]1CCN(c2cn[nH]c(=O)c2Cl)C1` [P-0118, (R)-1-(5-chloro-6-oxo-1,6-dihydropyridazin-4-yl)pyrrolidin-3-yl [1,1′-bi(cyclopropan)]-1-ylcarbamate], the IC50 in assay [1] and in assay [2] was 0.001 to 10 µM throughout.

Turning to `O=C(NC1CC(O)C1)O[C@@H]1CCN(c2cn[nH]c(=O)c2Cl)C1` (stereo partly drawn) [P-0119, (R)-1-(5-chloro-6-oxo-1,6-dihydropyridazin-4-yl)pyrrolidin-3-yl (3-hydroxycyclobutyl)carbamate], the IC50 in assay [1] and in assay [2] was 0.001 to 10 µM throughout.

Turning to `O=C(NC1CCN(C2CCCC2)CC1)O[C@@H]1CCN(c2cn[nH]c(=O)c2Cl)C1` [P-0121, (R)-1-(5-chloro-6-oxo-1,6-dihydropyridazin-4-yl)pyrrolidin-3-yl (1-cyclopentylpiperidin-4-yl)carbamate], the IC50 in assay [1] and in assay [2] was 0.001 to 10 µM each time.

`CC(C)N1CCC(NC(=O)O[C@@H]2CCN(c3cn[nH]c(=O)c3Cl)C2)CC1` [P-0122, (R)-1-(5-chloro-6-oxo-1,6-dihydropyridazin-4-yl)pyrrolidin-3-yl (1-isopropylpiperidin-4-yl)carbamate]: the IC50 in assay [1] and in assay [2] was 0.001 to 10 µM each time.

Take `O=C(NC1CCN(c2ncccn2)CC1)O[C@@H]1CCN(c2cn[nH]c(=O)c2Cl)C1` [P-0123, (R)-1-(5-chloro-6-oxo-1,6-dihydropyridazin-4-yl)pyrrolidin-3-yl (1-(pyrimidin-2-yl)piperidin-4-yl)carbamate]: the IC50 in assay [1] and in assay [2] was 0.001 to 10 µM each time.

Regarding `CC(C)(C)OC(=O)NC1CCC(NC(=O)O[C@@H]2CCN(c3cn[nH]c(=O)c3Cl)C2)CC1` (stereo partly drawn) [P-0124, (R)-tert-butyl (1-(5-chloro-6-oxo-1,6-dihydropyridazin-4-yl)pyrrolidin-3-yl) cyclohexane-1,4-diyldicarbamate], the IC50 in assay [1] and in assay [2] was 0.001 to 10 µM in each case.

With `NC1CCC(NC(=O)O[C@@H]2CCN(c3cn[nH]c(=O)c3Cl)C2)CC1` (stereo partly drawn) [P-0125, (R)-1-(5-chloro-6-oxo-1,6-dihydropyridazin-4-yl)pyrrolidin-3-yl (4-aminocyclohexyl)carbamate], the IC50 in assay [1] and in assay [2] was 0.001 to 10 µM throughout.

Consider `N#Cc1c(N2CC[C@@H](OC(=O)NC3CCCCC3)C2)cn[nH]c1=O` [P-0127, (R)-1-(5-cyano-6-oxo-1,6-dihydropyridazin-4-yl)pyrrolidin-3-yl cyclohexylcarbamate], for which the IC50 in assay [1] and in assay [2] was 0.001 to 10 µM in each case.

As for `CS(=O)(=O)N[C@H]1CC[C@@H](NC(=O)O[C@@H]2CCN(c3cn[nH]c(=O)c3Cl)C2)CC1` [P-0128, (R)-1-(5-chloro-6-oxo-1,6-dihydropyridazin-4-yl)pyrrolidin-3-yl ((1s,4S)-4-(methylsulfonamido)cyclohexyl)carbamate], the IC50 in assay [1] and in assay [2] was 0.001 to 10 µM in each case.

For `CS(=O)(=O)N[C@H]1CC[C@H](NC(=O)O[C@@H]2CCN(c3cn[nH]c(=O)c3Cl)C2)CC1` [P-0129, (R)-1-(5-chloro-6-oxo-1,6-dihydropyridazin-4-yl)pyrrolidin-3-yl ((1r,4R)-4-(methylsulfonamido)cyclohexyl)carbamate], the IC50 in assay [1] and in assay [2] was 0.001 to 10 µM each time.

With `O=C(NC1CCCCC1)O[C@@H]1CCN(c2cnn(-c3cccc(C(=O)O)c3)c(=O)c2Cl)C1` [P-0130, (R)-3-(5-chloro-4-(3-((cyclohexylcarbamoyl)oxy)pyrrolidin-1-yl)-6-oxopyridazin-1(6H)-yl)benzoic acid], the IC50 in assay [1] and in assay [2] was 10 to 100 µM in each case.

Take `O=C(N[C@H]1CC[C@H](O)CC1)O[C@@H]1CCN(c2cn[nH]c(=O)c2Cl)C1` [P-0131, (R)-1-(5-chloro-6-oxo-1,6-dihydropyridazin-4-yl)pyrrolidin-3-yl ((1r,4R)-4-hydroxycyclohexyl)carbamate]: the IC50 in assay [1] and in assay [2] was 0.001 to 10 µM throughout.

As to `O=C(N[C@H]1CCCOC1)O[C@@H]1CCN(c2cn[nH]c(=O)c2Cl)C1` [P-0132, (R)-1-(5-chloro-6-oxo-1,6-dihydropyridazin-4-yl)pyrrolidin-3-yl ((S)-tetrahydro-2H-pyran-3-yl)carbamate], the IC50 in assay [1] and in assay [2] was 0.001 to 10 µM each time.

For `CC1(NC(=O)O[C@@H]2CCN(c3cn[nH]c(=O)c3Cl)C2)CCOCC1` [P-0133, (R)-1-(5-chloro-6-oxo-1,6-dihydropyridazin-4-yl)pyrrolidin-3-yl (4-methyltetrahydro-2H-pyran-4-yl)carbamate], the IC50 in assay [1] and in assay [2] was 0.001 to 10 µM in each case.
